Reference: patent publication EP0063075A1, “(2,6-Dimethoxy-4-hydroxyphenyl)-(3-piperidinopropyl) ketone and its salts, its use in therapeutic preparations and process for its production” (LABORATOIRE L. LAFON Société anonyme dite:, priority 1981, dated 1982)

Columns and labels:
[1] = result in words, compared with LL 1656; cited from earlier work
[2] = test system: chien mâle anesthésié au nembutal; assay: Peripheral vasodilator properties, intravenous administration in the anaesthetised dog; assay type: in vivo
Description: (§1) Les propriétés vasodilatatrices périphériques ont été étudiées chez le chien mâle anesthésié au nembutal (6 animaux par dose et par produit). Les produits à comparer sont administrés en solution dans du sérum physiologique sous un volume de 6 ml/animal par voie intraveineuse (perfusion de 1 ml/min) et sous un volume de 10 ml/animal par voie intraduodénale. Par rapport aux témoins (les mêmes animaux ne recevant que le sérum physiologique), on mesure trois paramètres : la pression artérielle moyenne (exprimée en mm Hg; mm Hg correspond à 1,333224 x 10^2 Pa), la fréquence cardiaque (exprimée en battements/minute) et le débit artériel fémoral (exprimé en ml/min). Les variations de ces paramètres exprimées en pourcentages, par rapport aux témoins, sont données dans les tableaux II (administration intraveineuse) et III (administration intraduodénale) ci-après.
(§2) La vasodilatation périphérique se traduit dans ces circonstances par une augmentation du débit artériel fémoral. On dit, selon les présentes conditions opératoires, qu'un produit est un agent vasodilatateur périphérique si le débit artériel fémoral augmente d'au moins 30% par administration intraveineuse, d'une part, et par administration intraduodénale, d'autre part, sans que la variation de la pression artérielle soit supérieure à +10% ou inférieure à -10%.

[3] = test system: chien mâle anesthésié au nembutal; assay: Peripheral vasodilator properties, intraduodenal administration in the anaesthetised dog; assay type: in vivo; conditions: for effet sur la pression artérielle par voie I.D. / effet vasodilatateur par voie I.D.: result in words
Description: as §1, §2

[4] = Solubility in water (description of the isolated product); assay type: physicochemical; conditions: result in words
[5] = as indicated in British patent n° 1.325.192; cited from earlier work
escarres = assay: Clinical use in the treatment of bedsores; assay type: in vivo, homme; conditions: in man

O=C(CCCN1CCCC1)c1c(O)cc(O)cc1O [(2,4,6-trihydroxyphényl)-(3-pyrrolidinopropyl)-cétone]
propriétés vasodilatatrices périphériques [1]: aussi intéressants que le LL 1656

COc1cc(O)c(C(=O)CCCN2CCCC2)c(OC)c1 [(2,4-diméthoxy-6-hydroxyphényl)-(3-pyrrolidinopropyl)-cétone]
propriétés vasodilatatrices périphériques [1]: aussi intéressants que le LL 1656

COc1cc(O)cc(OC)c1C(=O)CCCN1CCCC1 [(2,6-diméthoxy-4-hydroxy-phényl)-(3-pyrrolidinopropyl)-cétone]
propriétés vasodilatatrices périphériques [1]: dépourvus d'effets vasodilatateurs périphériques

COc1cc(O)c(C(=O)CCCN2CCCCC2)c(OC)c1 [CP1, chlorhydratede (2,4-diméthoxy-6-hydroxyphényl)-(3-pipé-ridinopropyl)-cétone]
effet vasodilatateur par voie I.V. ([2]; result in words, i.v. route): très faiblement vasodilatateur
diminution de la pression artérielle par voie I.D. ([3]; intraduodenal route): > 10%
effet sur la pression artérielle par voie I.D. ([3]; intraduodenal route): effet hypotenseur
effet vasodilatateur par voie I.D. ([3]; intraduodenal route): n'a guère d'effet vasodilatateur
solubilité dans l'eau [4]: très soluble dans l'eau

O=C(CCCN1CCCCC1)c1c(O)cc(O)cc1O [CP2, chlorhydratede (2,4,6-trihydroxyphényl)-(3-pipéridinopropyl)-cétone]
dose à partir de laquelle le produit est vasodilatateur par voie I.V. [5]: ≥ 5 mg/kg
variation du débit artériel fémoral par voie I.D. ([3]; intraduodenal route): +17%
effet sur la pression artérielle par voie I.D. ([3]; intraduodenal route): effet hypotenseur
effet vasodilatateur par voie I.D. ([3]; intraduodenal route): pratiquement dépourvu d'effet vasodilatateur

COc1ccc(C(=O)CN2CCCCC2)c(OC)c1 [CP5, (2,4-dimé-thoxyphényl)-(pipéridinométhyl)-cétone]
change in vivo at 20 mg/kg ([3]; Canis lupus familiaris, intraduodenal, dose 20 mg/kg, versus controls, read-out: Variations en % Pression artérielle): 0%

COc1cc(OC)c(C(=O)CCCN2CCCC2)c(OC)c1 [CP7, chlorhydratede (2,4,6-triméthoxyphényl)-(3-pyrrolidinopropyl)-cétone]
change in vivo at 6 mg/kg ([2]; Canis lupus familiaris, intravenous, dose 6 mg/kg, versus controls, read-out: Variations en % Fréquence cardiaque): 0%
change in vivo at 1.5 mg/kg ([2]; Canis lupus familiaris, intravenous, dose 1,5 mg/kg, versus controls, read-out: Variations en % Pression artérielle): 0%

COc1cc(O)cc(OC)c1C(=O)CCCN1CCCCC1 [Exemple 1, chlorhydratede (2,6-diméthoxy-4-hydroxyphényl)-(3-pipéridinopropyl)-cétone]
activité en tant que vasodilatateur périphérique (comparaison) ([2]; text conclusion from tables II and III (i.v. and i.d.)): aussi actif que le produit de référence CP7
variation du débit artériel fémoral par voie I.V. ([2]; text summary over all i.v. doses (toujours)): > +30%
résultats dans le traitement des escarres (escarres): bons résultats
variation du débit artériel fémoral par voie I.D. ([3]; intraduodenal route): > +30%
solubilité dans l'eau [4]: soluble dans l'eau

(2,6-dihydroxy-4-méthoxyphényl)- ou (2,4-dihydroxy-6-méthoxyphényl)-(3-pyrrolidinopropyl)-cétone
propriétés vasodilatatrices périphériques [1]: dépourvus d'effets vasodilatateurs périphériques
